Tests used:
[1] = system: murine sarcoma 180; settings: cited from earlier work
[2] = Degradation of stored BEC extract, solamargine and solasonine levels by HPLC; assay type: physicochemical; settings: for % degradation estimated: four weeks storage under ambient conditions, estimated from the degradation study
Source text: A BEC extract was obtained from Solanum Sodomaeum according to conventional extraction procedures. The degradation of the BEC extract was estimated by measuring the change in solamargine and solasonine levels over time. Although degradation of BEC could also be measured by an increase in sugar levels, in practice HPLC analysis for solamargine and solasonine allowed a more quantative analysis to be conducted and was therefore chosen for this study.

[3] = system: human ovarian cancer cells; assay: Effect of washed and unwashed BEC on human ovarian cancer cells; assay type: cell-based
Description: The effect of washed and unwashed BEC or human ovarian cancer cells was compared. The washed and unwashed BEC were prepared as described for Example 8.
Cells (5×10^4) were transferred (200 μl chamber of a microscope slide (Lab Tek Miles Scientific). Controls received 50 μl HIFCS/TCM and experimental chambers 50 μl of solasodine glycosides (BEC) 1.5-3.8 μM/L, washed and unwashed after 7-h preincubation and incubated for a further 17 h and […] preincubation and incubated for a further 3h. Similarly, the cells were treated with the aglycone solasodine 19.4-96.8 μM/L. The cells were fixed and examined by the Papanicolaou method.

[4] = Time 0 years storage of BEC extract

SMILES	effect on S180 activity ([1]; similar concentrations of rhamnose in the absence of BEC)	Degradation (%) mean ± S.D. [2, 4]	Degradation (%) mean ± S.D. ([2]; Time 0.5 years)	Degradation (%) mean ± S.D. ([2]; Time 1 year)	Degradation (%) mean ± S.D. ([2]; Time 2 years)	Degradation (%) mean ± S.D. ([2]; Time 3 years)	Degradation (%) mean ± S.D. ([2]; Time 4 years)	Degradation (%) mean ± S.D. ([2]; Time 5 years)	% degradation estimated [2]	% survival ([3]; 3 μg/mL)	% survival ([3]; 6 μg/mL)	% survival ([3]; 9 μg/ml)	% survival ([3]; 12 μg/ml)	% survival ([3]; 15 μg/ml)	% survival ([3]; 18 μg/ml)	% survival ([3]; 24 μg/ml)	effect against tumor cells ([1]; administered at levels at which BEC is effective)
C[C@H](O)[C@H](O)[C@@H](O)[C@@H](O)C=O [rhamnose]	no effect																
C[C@@H]1CC[C@@]2(NC1)O[C@H]1C[C@H]3[C@@H]4CC=C5C[C@@H](O[C@@H]6O[C@H](CO)[C@@H](O[C@@H]7O[C@@H](C)[C@H](O)[C@@H](O)[C@H]7O)[C@H](O)[C@H]6O[C@@H]6O[C@@H](C)[C@H](O)[C@@H](O)[C@H]6O)CC[C@]5(C)[C@H]4CC[C@]3(C)[C@H]1[C@@H]2C [Solamargine, (22R,25R)-spiro-5-en-3β-yl-α-L-rhamnopyranosyl-(1->2glu)-O-α-L-rhamnopyranosyl-(1->4glu)-β-D-gluco-pyranose]		0%	4 ± 4%	8 ± 5%	12 ± 7%	15 ± 8%	19 ± 10%	22 ± 10%	less than 4%								
C[C@@H]1CC[C@@]2(NC1)O[C@H]1C[C@H]3[C@@H]4CC=C5C[C@@H](O)CC[C@]5(C)[C@H]4CC[C@]3(C)[C@H]1[C@@H]2C [Solasodine, solasodine]										100%	100%	100%	100%	100%	100%	100%	ineffective
C[C@@H]1CC[C@@]2(NC1)O[C@H]1C[C@H]3[C@@H]4CC=C5C[C@@H](O[C@@H]6O[C@H](CO)[C@H](O)[C@H](O[C@@H]7O[C@H](CO)[C@@H](O)[C@H](O)[C@H]7O)[C@H]6O[C@@H]6O[C@@H](C)[C@H](O)[C@@H](O)[C@H]6O)CC[C@]5(C)[C@H]4CC[C@]3(C)[C@H]1[C@@H]2C [Solasonine, (22R, 25R)-spiro-5-en-3β-yl-α-L-rhamnopyranosyl-(1->2gal)-O-β-D-glucopyranosyl-(1->3gal)-β-D-galactopyranose]		0%	5 ± 5%	10 ± 5%	15 ± 8%	19 ± 9%	21 ± 10%	23 ± 11%	< 5%								

— patent publication US20040220115A1, “Medicinal compositions and their method of preparation” (priority 1999, published 2004)
